One may read the MIC as the lowest concentration found to suppress growth. A lower MIC goes with inhibition by little substance.

One sequence from publication PMC10487658, “Identification and Characterization of RK22, a Novel Antimicrobial Peptide from Hirudinaria manillensis against Methicillin Resistant Staphylococcus aureus” (International Journal of Molecular Sciences, 2023) can be followed below.

No end group written: not given here.

In data set [1] the test system is washed platelets. Nature of the data set: Platelet activity assay, flow cytometry. The note with it: mouse washed platelets, 20, 10, 5, 2.5 μg/mL, 10 min, P-selectin. The format is cell-based. As to the method: Platelets were isolated from the mice as described in a previous study with minor modifications. The effect of RK22 and LL-37 on platelet activity was detected by flow cytometry. Mouse blood was mixed with Tyrode’s buffer A (137 mM NaCl, 2 mM KCl, 0.3 mM NaH2PO4, 12 mM NaHCO3, 5.5 mM glucose, 0.35% BSA, 1 mM MgCl2, and 0.2 mM EDTA, pH 6.5) and centrifuged (150× g, 10 min, room temperature) to obtain platelet-rich plasma (PRP), which was then pelleted (400× g, 5 min, room temperature), washed with Tyrode’s buffer A, and finally resuspended in Tyrode’s buffer B (137 mM NaCl, 2 mM KCl, 0.3 mM NaH2PO4, 12 mM NaHCO3, 5.5 mM glucose, 0.35% BSA and 2 mM CaCl2, pH 7.4). Antibodies against P-selectin (Biolegend, San Diego, CA, USA) were added to the platelets, followed by incubation for 10 min at room temperature. Samples (20, 10, 5, and 2.5 μg/mL) or normal saline were added, respectively, and analyzed by flow cytometry (BD, LSRFortessa^TM, Franklin Lakes, NJ, USA).
In general terms: A flow cytometer gives signals particle by particle.

The test system of data set [2] is E. coli, ATCC25922. The format is cell-based, Escherichia coli. The note with it: E. coli ATCC25922; RPMI 1640, 37 °C, 12–16 h, absorbance at 600 nm.
The subject of data set [3] is MRSA-Z. Type of data set: in vitro ADME, Staphylococcus aureus. As to the method:
(§1) We determined the stability of RK22 in plasma according to the previously reported method. Briefly, an equal volume of RK22 was mixed with human plasma and diluted to a concentration of 5 mg/mL. The MICs of RK22 against S. aureus ATCC6538 and methicillin-resistant S. aureus MRSA-Z were determined after incubation at 37 °C for different times (0, 2, 4, 6, 8, and 10 h).

Data set [4] concerns S. aureus (ATCC6538). The format is in vitro ADME, Staphylococcus aureus. As to the method:
as §1

Consider RKYKEKKDKSQNKKKKRKCMIL [RK22], for which the platelet activation result in data set [1] is listed as “did not exert any such effects”. Moreover, in data set [2], the MIC is 25 µg/mL. In addition, the “MIC after incubation in plasma” value in data set [3] and in data set [4] was 6.25 µg/mL throughout.
